Measurements: patent US4560693A, “[1,3]-Dioxolo[4,5-f]benzimidazoles and [1,4]-dioxino[2,3-f]benzimidazoles” (Byk Gulden Lomberg Chemische Fabrik GmbH, priority 1983, dated 1985)

Legend:
[1] = tested on: gastric lesion formation (rat stomach); test: Antiulcerogenic action / protective effect on the stomach (modified Shay rat: pyloric ligature plus oral acetylsalicylic acid); assay type: in vivo; conditions: rats, perorally, 1 h before pyloric ligature, 100 mg/kg acetylsalicylic acid orally, dose reducing lesion index by 50% vs control, 4 h, read-out: Protective effect on the stomach: Inhibition of the lesion index, ED50
Description: (§1) In these experiments, the compounds according to the invention were compared with prior art compounds (A-D) of UK Patent Application GB No. 2 082 580. The compounds investigated are numbered as follows:
(§2) The influence of the compounds according to the invention on gastric lesion formation induced by pyloric ligature (4 h; so-called Shay rat) and oral administration of 100 mg/kg of acetylsalicylic acid, and the gastric secretion (HCl) in the course of 4 h in rats is shown in the following table.
(§3) *ED25 und ED50 = dose which reduces the lesion index or the HCl secretion
(§4) (4h) in the rat stomach by 25 and, respectively, 50% in the treated group
(§5) in comparison with the control group.
The antiulcerogenic action was tested by the so-called Shay rat method:
(§6) Ulcers are caused in rats which have been fasted for 24 hours (female, 180-200 g, 4 animals per cage on a high grid) by pyloric ligature (under diethyl ether anesthesia) and oral administration of 100 mg/10 ml/kg of acetylsalicylic acid. The substances to be tested are administered orally (10 ml/kg) one hour before the pyloric ligature. The wound is closed by means of Michel clamps. 4 hours thereafter, the animals are sacrificed under ether anesthesia by Atlas dislocation and resection of the stomach. The stomach is opened longitudinally and attached to a cork plate, after the amount of gastric juice secreted (volume) and later its HCl content (titration with sodium hydroxide solution) have first been determined; the number and size (=diameter) of the ulcers present are determined under a stereomicroscope at 10-fold magnification. The product of the degree of severity (according to the following points scale) and number of ulcers serves as the individual lesion index.
Ulcer diameter 0.1-1.4 mm: 1
(§7) The reduction in the average lesion index of each treated group compared with the control group (=100%) serves as a measure of the antiulcerogenic effect.

gastric secretion (HCl) = test: Inhibition of gastric secretion (HCl) in the Shay rat over 4 h; assay type: in vivo; conditions: rats; for ED25 / ED50: Rattus norvegicus, po, perorally; for ED25: dose reducing HCl secretion (4 h) by 25% vs control; for ED50: dose reducing HCl secretion (4 h) by 50% vs control; for Gastric secretion: % inhibition of HCl secretion: after administration of the antiulcerous ED50, 4 h
Description: as §1, §2, §3, §4, §5
**after administration of the antiulcerous ED50.
as §6, §7

Compound: COc1cc(C[S+]([O-])c2nc3cc4c(cc3[nH]2)OC(F)(F)O4)ncc1C (stereo not drawn) [Serial No. 8, 2,2-difluoro-6-[(4-methoxy-5-methyl-2-pyridyl)methylsulfinyl]-5H-[1,3]-dioxolo[4,5-f]benzimidazole]
- ED50 [1]: 0.5 mg/kg
- ED25 (gastric secretion (HCl)): 1 mg/kg
- ED50 (gastric secretion (HCl)): 2.5 mg/kg
- Gastric secretion: % inhibition of HCl secretion (gastric secretion (HCl)): 17%

Compound: COc1ccnc(C[S+]([O-])c2nc3cc4c(cc3[nH]2)OCCO4)c1 (stereo not drawn) [Serial No. D, 6,7-Dihydro-2-[(4-methoxy-2-pyridyl)methylsulfinyl]-1H--[1,4]-dioxino[2,3-f]benzimidazole, reference compound]
- ED50 [1]: 30 mg/kg
- ED25 (gastric secretion (HCl)): > 30 mg/kg
- ED50 (gastric secretion (HCl)): > 30 mg/kg
- Gastric secretion: % inhibition of HCl secretion (gastric secretion (HCl)): 0%

Compound: COc1ccnc(CSc2nc3cc4c(cc3[nH]2)OCCO4)c1 [Serial No. C, 6,7-Dihydro-2-[(4-methoxy-2-pyridyl)methylthio]-1H--[1,4]-dioxino[2,3-f]benzimidazole, reference compound]
- ED50 [1]: 30 mg/kg
- ED25 (gastric secretion (HCl)): > 30 mg/kg
- ED50 (gastric secretion (HCl)): > 30 mg/kg
- Gastric secretion: % inhibition of HCl secretion (gastric secretion (HCl)): 19%

Compound: COc1ccnc(CSc2nc3cc4c(cc3[nH]2)OCO4)c1 [Serial No. A, 6-[(4-Methoxy-2-pyridyl)methylthio]-5H--[1,3]-dioxolo-[4,5-f]benzimidazole, reference compound]
- ED50 [1]: > 10 mg/kg
- ED25 (gastric secretion (HCl)): > 10 mg/kg

Compound: COc1c(C)cnc(C[S+]([O-])c2nc3cc4c(cc3[nH]2)OC(F)C(F)(F)O4)c1C (stereo not drawn) [Serial No. 9, 6,6,7-trifluoro-6,7-dihydro-2-[(4-methoxy-3,5-dimethyl-2-pyridyl)methylsulfinyl]-1H-[1,4]-dioxino[2,3-f]benzimidazole]
- ED50 [1]: 0.5 mg/kg
- ED25 (gastric secretion (HCl)): 0.7 mg/kg
- ED50 (gastric secretion (HCl)): 1 mg/kg
- Gastric secretion: % inhibition of HCl secretion (gastric secretion (HCl)): 15%

Compound: COc1ccnc(C[S+]([O-])c2nc3cc4c(cc3[nH]2)OCO4)c1 (stereo not drawn) [Serial No. B, 6-[(4-Methoxy-2-pyridyl)methylsulffinyl]-5H--[1,3]-dioxolo-[4,5-f]benzimidazole, reference compound]
- ED50 [1]: ~5 mg/kg

Compound: COc1ccnc(C[S+]([O-])c2nc3cc4c(cc3[nH]2)OC(F)(F)C(F)(Cl)O4)c1C (stereo not drawn) [Serial No. 10, 6-Chloro-6,7,7-trifluoro-6,7-dihydro-2-[(4-methoxy-3-methyl-2-pyridyl)methylsulfinyl]-1H-[1,4]-dioxino[2,3-f]benzimidazole]
- ED50 [1]: 0.4 mg/kg
- ED25 (gastric secretion (HCl)): 0.4 mg/kg
- ED50 (gastric secretion (HCl)): 0.7 mg/kg
- Gastric secretion: % inhibition of HCl secretion (gastric secretion (HCl)): 25%

Compound: COc1ccnc(C[S+]([O-])c2nc3cc4c(cc3[nH]2)OC(F)C(F)(F)O4)c1C (stereo not drawn) [Serial No. 5, 6,6,7-trifluoro-6,7-dihydro-2-[(4-methoxy-3-methyl-2-pyridyl)methylsulfinyl]-1H-[1,4]-dioxino[2,3-f]benzimidazole]
- ED50 [1]: 0.35 mg/kg
- ED25 (gastric secretion (HCl)): < 0.3 mg/kg
- ED50 (gastric secretion (HCl)): 0.6 mg/kg
- Gastric secretion: % inhibition of HCl secretion (gastric secretion (HCl)): 35%

Compound: COc1ccnc(C[S+]([O-])c2nc3cc4c(cc3[nH]2)OC(F)C(F)(F)O4)c1 (stereo not drawn) [Serial No. 3, 6,6,7-Trifluoro-6,7-dihydro-2-[(4-methoxy-2-pyridyl)methylsulfinyl]-1H-[1,4]-dioxino[2,3-f]benzimidazole]
- ED50 [1]: 0.45 mg/kg
- ED25 (gastric secretion (HCl)): 0.5 mg/kg
- ED50 (gastric secretion (HCl)): 1.4 mg/kg
- Gastric secretion: % inhibition of HCl secretion (gastric secretion (HCl)): 23%

Compound: COc1ccnc(CSc2nc3cc4c(cc3[nH]2)OC(F)(F)C(F)O4)c1 (stereo not drawn) [Serial No. 4, 6,6,7-Trifluoro-6,7-dihydro-2-[(4-methoxy-2-pyridyl)-methylthio]-1H--[1,4]-dioxino[2,3-f]benzimidazole]
- ED50 [1]: 0.6 mg/kg
- ED25 (gastric secretion (HCl)): 1 mg/kg
- ED50 (gastric secretion (HCl)): 1.7 mg/kg
- Gastric secretion: % inhibition of HCl secretion (gastric secretion (HCl)): 25%

Compound: COc1ccnc(CSc2nc3cc4c(cc3[nH]2)OC(F)C(F)(F)O4)c1C (stereo not drawn) [Serial No. 6, 6,6,7-trifluoro-6,7-dihydro-2-[(4-methoxy-3-methyl-2-pyridyl)methylthio]-1H-[1,4]-dioxino[2,3-f]benzimidazole]
- ED50 [1]: 0.6 mg/kg
- ED25 (gastric secretion (HCl)): 0.7 mg/kg
- ED50 (gastric secretion (HCl)): 1.4 mg/kg
- Gastric secretion: % inhibition of HCl secretion (gastric secretion (HCl)): 20%

Compound: COc1ccnc(C[S+]([O-])c2nc3cc4c(cc3[nH]2)OC(F)(F)O4)c1 (stereo not drawn) [Serial No. 1, 2,2-Difluoro-6-[(4-methoxy-2-pyridyl)methylsulfinyl]-5H--[1,3]-dioxolo[4,5-f]benzimidazole]
- ED50 [1]: 0.6 mg/kg
- ED25 (gastric secretion (HCl)): 0.6 mg/kg
- ED50 (gastric secretion (HCl)): 0.9 mg/kg
- Gastric secretion: % inhibition of HCl secretion (gastric secretion (HCl)): 25%

Compound: COc1ccnc(C[S+]([O-])c2nc3cc4c(cc3[nH]2)OC(F)(F)O4)c1C (stereo not drawn) [Serial No. 2, 2,2-difluoro-6-[(4-methoxy-3-methyl-2-pyridyl)methylsulfinyl]-5H-[1,3]-dioxolo-[4,5-f]benzimidazole]
- ED50 [1]: 0.4 mg/kg
- ED25 (gastric secretion (HCl)): < 0.3 mg/kg
- ED50 (gastric secretion (HCl)): 0.6 mg/kg
- Gastric secretion: % inhibition of HCl secretion (gastric secretion (HCl)): 30%

Compound: COc1ccnc(CSc2nc3cc4c(cc3[nH]2)OC(F)(F)O4)c1C [Serial No. 7, 2,2-difluoro-6-[(4-methoxy-3-methyl-2-pyridyl)methylthio]-5H-[1,3]-dioxolo[4,5-f]benzimidazole]
- ED50 [1]: 0.6 mg/kg
- ED25 (gastric secretion (HCl)): 0.6 mg/kg
- ED50 (gastric secretion (HCl)): > 1 mg/kg
- Gastric secretion: % inhibition of HCl secretion (gastric secretion (HCl)): 25%
